According to paper PMC6175062, “Gaining Mechanistic Insight Into Coproporphyrin I as Endogenous Biomarker for OATP1B‐Mediated Drug–Drug Interactions Using Population Pharmacokinetic Modeling and Simulation” (Clinical Pharmacology and Therapeutics, 2018):
Several values for one entry are separate records, joined by “and”; a condition that tells them apart may be missing. Equal entries are not always repeated. Where two headings read alike, the source gives them in different places.

Columns and labels:
OATP = conditions: cited from earlier work
[1] = Population PK model of rosuvastatin plasma and urine data with/without rifampicin; format: in vivo, human
Description: (§1) Individual plasma and urine data were obtained from a previous study in 12 healthy male subjects.6 The study was split into three occasions (OCC1–3) with a 7‐day washout period between OCC1 and 2 and OCC2 and 3. During each occasion, baseline CPI urine and plasma samples were collected (Figure S2). A single 600‐mg oral dose of RIF and a single 5‐mg oral dose of RSV were administered to the volunteers in OCC1 and OCC2, respectively. Finally, in OCC3 the same respective doses of RIF and RSV were coadministered to healthy volunteers. Plasma (RIF, RSV, and CPI) were collected at predefined timepoints over the 24‐h period following administration of RIF and/or RSV. Urine samples were collected over one time interval (−7 to 0 h) for the pretreatment sample (CPI monitored) and two subsequent intervals (0–7 h and 7–24 h) for posttreatment samples of CPI and RSV. The total number of plasma samples for modeling purposes were 276 (OCC1 = 144, OCC3 = 132), 420 (OCC1 = 144, OCC2 = 144, OCC3 = 132), and 264 (OCC2 = 132, OCC3 = 132) for RIF, CPI, and RSV, respectively, whereas the total number of urine samples were 102 (pretreatment = 34, posttreatment = 68) and 44 for CPI and RSV, respectively. No subjects enrolled in the clinical study had OATP1B1*5 or OATP1B1*15 mutations, associated with altered OATP1B1 activity.
(§2) Population PK models were developed sequentially for analysis of RIF, CPI, and RSV plasma and urine data using nonlinear mixed‐effects modeling software, NONMEM, with first‐order conditional estimation method.32 Statistical analysis, GOF plots, and other graphical analysis were conducted in MATLAB. The structural models for RIF and RSV (Supplementary Material) were selected based on population PK models available in the literature.34, 35 An exponential model was used to describe interindividual variability random‐effects parameters and IOV was evaluated for the model parameters; occasions were defined as periods of different visits following recruitment or washout periods. Covariates and random‐effects parameters (IIV and IOV) were retained in the models when there was a significant change in objective function and improvement in GOF plots. The incorporation of IIV and IOV in the models is shown in Equation 2: (2) θik=θ⋅e^ηi+κik where θ ik is the parameter for i^th individual on k^th occasion, θ is the population (typical individual) parameter, η i is the parameter that describes the deviation of the i^th individual parameter from the population (IIV), and k ik the parameter that describes the deviation of the i^th individual from the population in addition to η ik at the k^th occasion (IOV). Both random effect parameters (η ik and k ik) are assumed to be randomly distributed with a mean of zero and the variances are estimated during analysis. Proportional or additive or combination of proportional and additive residual error models were investigated for the residuals.
Based on the available plasma and urine data, a two compartment first order absorption and elimination model was used to describe the PK of RSV in the subjects. The model was parameterised using [picture] , volume of distribution of central ( [picture] ) and peripheral compartments ( [picture] ), inter-compartmental clearance ( [picture] ), biliary ( [picture] ) and renal ( [picture] ) clearance parameters. Analogous to CPI, inhibition of [picture] by RIF was incorporated in the rate of change of RSV plasma concentration, whereas it was assumed that RIF has no effect on RSV renal elimination (Eq 2). The rate of change of RSV amount in urine over time is shown in Eq3.
where [picture] and [picture] are RSV concentrations in central (plasma) and peripheral compartments, [picture] is the amount in depot compartment, [picture] is RSV amount in the urine and [picture] is RIF transporter inhibition constant using RSV as a probe. […]

[2] = Analysis of individual clinical CPI and rosuvastatin data (baseline, AUCR, fT); format: in vivo, human; conditions: for mean fraction eliminated via transporters (fT): from AUC with/without RIF (Equation 1)
Description: as §1
Variability in baseline CPI plasma concentration between the three occasions was assessed and a one‐way analysis of variance (ANOVA) test was used to determine any significant differences. CPI and RSV plasma concentrations in the presence/absence of RIF were used to calculate the area under the curve (AUC) using the trapezoid function in MATLAB (MathWorks, Natick, MA, 2015a). Subsequently, the fold change in RSV and CPI AUC of each individual and the fraction eliminated by transporters (fT) for each probe was calculated (Equation 1). (1) fT=1−AUC(control)/AUC(+inhibitor)

[3] = Population PK (turnover) model of CPI plasma and urine data with/without rifampicin; format: in vivo, human
Description: as §1, §2
The plasma concentrations of the endogenous biomarker CPI were described using a turnover model (Equation 3).36 Simultaneous fitting of individual CPI plasma and urine data in the presence and absence of RIF was performed. In the final model, RIF inhibited biliary elimination (CL b,CPI) of CPI, whereas its renal clearance (CL R,CPI) and k syn were not affected. The rate of change of CPI plasma concentration under baseline and RIF condition is shown in Equations 3 and 4, respectively, whereas change in CPI amount in urine over time is shown in Equation 5. (3) dCCPI/dt=[ksyn−CLb,CPI⋅CCPI−CLR,CPI⋅CCPI]⋅1/VCPI (4) dCCPI/dt=[ksyn−CLb,CPI⋅CCPI/1+CRIF/KiCPI−CLR,CPI⋅CCPI]⋅1/VCPI (5) dUCPI/dt=CLR,CPI⋅CCPI where C CPI is its plasma concentration, U CPI is the CPI amount in urine, t is time, k syn is the zero‐order synthesis rate, Ki CPI is RIF transporter inhibition constant using CPI as a probe, V CPI is the volume of distribution of CPI and C RIF is RIF plasma concentration (linked to RIF model). […]

In the case of `C=C[C@@H]1C[C@]1(NC(=O)[C@@H]1C[C@@H](Oc2ncc(OC)c3ccc(Cl)cc23)CN1C(=O)[C@@H](NC(=O)OC(C)(C)C)C(C)(C)C)C(=O)NS(=O)(=O)C1CC1` [Asunaprevir], the “Fold Change in AUC of rosuvastatin” value (OATP; inhibitor 200 mg, rosuvastatin 10 mg, ref (14)) is listed as 1.41 fold.
In the case of `CC[C@H]1OC(=O)[C@H](C)[C@@H](O[C@H]2C[C@@](C)(OC)[C@@H](O)[C@H](C)O2)[C@H](C)[C@@H](O[C@@H]2O[C@H](C)C[C@H](N(C)C)[C@H]2O)[C@](C)(OC)C[C@@H](C)C(=O)[C@H](C)[C@@H](O)[C@]1(C)O` [Clarithromycin], the “Fold Change in AUC of rosuvastatin” value (OATP; inhibitor 500 mg, rosuvastatin 0.025 mg, ref (15)) is given as 1.56 fold.
For `C=C[C@@H]1C[C@]1(NC(=O)[C@@H]1C[C@@H]2CN1C(=O)[C@H](C(C)(C)C)NC(=O)O[C@@H]1C[C@H]1CCCCCc1nc3ccc(OC)cc3nc1O2)C(=O)NS(=O)(=O)C1CC1.O` [Grazoprevir], the “Fold Change in AUC of rosuvastatin” value (OATP; inhibitor 200 mg, rosuvastatin 10 mg, ref (16)) is given as 1.59 fold.
In the case of `CCC(C)n1ncn(-c2ccc(N3CCN(c4ccc(OCC5COC(Cn6cncn6)(c6ccc(Cl)cc6Cl)O5)cc4)CC3)cc2)c1=O` (stereo not shown) [Itraconazole], the “Fold Change in AUC of rosuvastatin” value (OATP; inhibitor 200 mg, rosuvastatin 0.025 mg, ref (15)) is given as 1.78 fold.
In the case of `Cc1cnc(C(=O)N[C@H]2CCCCC/C=C\[C@@H]3C[C@@]3(C(=O)NS(=O)(=O)C3CC3)NC(=O)[C@@H]3C[C@@H](Oc4nc5ccccc5c5ccccc45)CN3C2=O)cn1` [Paritaprevir], the “Fold Change in AUC of rosuvastatin” value (OATP; inhibitor 150 mg, rosuvastatin 10 mg, ref (17)) is listed as 2.6 fold.
For `CC(C)c1nc(N(C)S(C)(=O)=O)nc(-c2ccc(F)cc2)c1/C=C/[C@@H](O)C[C@@H](O)CC(=O)O` [RSV, rosuvastatin], the “QRSV, population estimate (SE%)” value ([1]; RSV alone) was 45.3 (19) L/h, the “V1RSV, population estimate (SE%)” value ([1]; RSV alone) was 430 (12) L and the “V2RSV, population estimate (SE%)” value ([1]; RSV alone) was 865 (37) L. The “QRSV (RIF), population estimate (SE%)” value ([1]; co-administered with RIF) was 5.03 (18) L/h, the “V1RSV (RIF), population estimate (SE%)” value ([1]; co-administered with RIF) was 2.98 (50) L and the “V2RSV (RIF), population estimate (SE%)” value ([1]; co-administered with RIF) was 128 (42) L. The “contribution of biliary clearance to elimination” value ([1]; in vivo) was 94%, the “reduction of V1RSV in the presence of RIF” value ([1]; in vivo) was over 90% and the CL renal ([1]; male, human, in vivo, 5 mg) was 141 mL/min. For the same molecule, the “CLb,RSV, population estimate (SE%)” value ([1]; male, human, in vivo, 5 mg) was 124 (11) L/h, the “kaRSV, population estimate (SE%)” value ([1]; single 5-mg oral dose) was 0.287 (9) h^−1 and the “change in Cmax (fold increase) following RIF” value ([2]; RIF 600 mg co-administered) was 13.2 fold. The “range of estimated individual fT” value ([2]; from AUC with/without RIF) was 0.66–0.88 and the “mean fraction eliminated via transporters (fT)” value [2] was 0.79.
For `COc1ccc2c(O[C@@H]3C[C@H]4C(=O)N[C@]5(C(=O)NS(=O)(=O)C6CC6)C[C@H]5/C=C\CCCCN(C)C(=O)[C@@H]4C3)cc(-c3nc(C(C)C)cs3)nc2c1C` [Simeprevir], the “Fold Change in AUC of rosuvastatin” value (OATP; inhibitor 150 mg, rosuvastatin 10 mg, ref (19)) is listed as 2.8 fold.
For `COC[C@H]1C[C@@H](c2ncc(-c3ccc4c(c3)COc3cc5c(ccc6nc([C@@H]7CC[C@H](C)N7C(=O)[C@@H](NC(=O)OC)C(C)C)[nH]c65)cc3-4)[nH]2)N(C(=O)[C@H](NC(=O)OC)c2ccccc2)C1` [Velpatasvir], the “Fold Change in AUC of rosuvastatin” value (OATP; inhibitor 100 mg, rosuvastatin 10 mg, ref (18)) is listed as 2.69 fold.
In the case of coproporphyrin I [CPI], the “maximal contribution of biliary clearance to total clearance” value ([3]; basal conditions) is reported as > 85% and 88%, the “VCPI, population estimate (SE%)” value ([3]; baseline) is reported as 6.59 (12) L and the “ksyn (zero-order synthesis rate), population estimate (SE%)” value ([3]; endogenous CPI) is reported as 12.7 (6) nM/h. For the same molecule, the “VCPI (RIF), population estimate (SE%)” value ([3]; in the presence of RIF) was 3.4 (13) L, the “CLR,CPI (renal clearance), population estimate (SE%)” value ([3]; in vivo) was 1.64 (6) L/h and the “reduction of estimated VCPI in the presence of RIF” value ([3]; in vivo) was about 50%. The “mean fraction eliminated via transporters (fT)” value [2] was 0.76.
